Results as given in patent US20240400606A1, “SMALL MOLECULE ACTIVATORS OF THE IMMUNE SYSTEM” (THE BOARD OF TRUSTEES OF THE UNIVERSITY OF ILLINOIS, priority 2021, published 2024).
Entries after “also recorded” stand apart in the source; their conditions may differ.

Legend:
SULT2B1b = SULT2B1b (Homo sapiens (Human), UniProt O00204); test: LC-MS/MS based in vitro assay (DHEA-sulfate formation); format: biochemical; settings: 100 μM compound, 2 hours; mean±s.e.m., n=3
Experimental: LC-MS/MS Based In Vitro Assay. Stock solutions of DHEA (5 mM in DMSO) and compound of interest (5 mM in DMSO) were prepared. […] SULT2B1b was diluted to 1.5 μg/μL in protein storage buffer then down to 0.8 μg/μL in 1× activity assay buffer. 30 μL of 0.8 μg/μL SULT2B1b was added to each reaction. Reactions were incubated for 2 hours at 37° C. with shaking at 250 rpm. To quench, 30 μL reaction mix was added to 30 μL ice cold 0.5% HCl in MeCN, then centrifuged at 13,000 xg at room temperature for 3 min. 50 μL supernatant was transferred to an empty Eppendorf tube and submitted for LC-MS/MS quantification (UIUC Metabolomics Center), along with 5 mM DHEA sulfate standard. Controls: Reaction mix made with DHEA and DMSO in place of compound of interest (DHEA control). […] General LC-MS/MS Quantification Method. Both DHEAS and CS samples were analyzed by 6500 QTRAP (Sciex, Redwood City, CA) liquid chromatography-tandem mass spectrometry. […] The flow rate was 0.3 mL/min. […] The source temperature was 400° C. […] Cholesterol-sulfate and DHEA-sulfate were detected by multiple reaction monitoring (MRM) at m/z 465→97.0 and 367.0→97.0 respectively. Software Analyst 1.7.1 ([…]) was used for data acquisition and analysis.

MCF-7 cells = test: Alamar blue cellular cytotoxicity, MCF-7; format: cell-based; settings: MCF-7, 72 hours
Experimental: Alamar Blue Fluorescence for Cellular Activity (IC50). Cells were seeded per well in a 96-well plate (5000 for MCF-7, 4000 for T47D, 7000 for mouse embryonic fibroblasts) and allowed to adhere before DMSO solutions of compounds were added to each well. Final concentration of DMSO in each well is 1%, final volume: 100 μL. At the end of 72 hours, Alamar Blue solution was added (10 μL of 1 mg resazurin per 10 mL PBS). After 2-4 hours incubation, fluorescence (λexcit.=555 nm, λemission.=585 nm) was measured. The fluorescence of each well was read with a SpectraMax M3 plate reader (Molecular Devices). Percent dead was determined by comparison to a 100% dead control: 100 μM Raptinal treated cells.
Whole cell cytotoxicity-MCF-7. Cell cytotoxicity was assessed to ensure compound concentrations used the whole cell assays would not kill the cells. Alamar blue cell cytotoxicity assay: 5000 cells were seeded per well in a 96-well plate and allowed to adhere before DMSO solutions of compounds were added to each well. Final concentration of DMSO in each well is 1%, with a final volume of 100 μl. […] After 2 to 4 hours of incubation, fluorescence (λexcitation=555 nm, λemission=585 nm) was measured. Percent dead was determined by comparison to a 100% dead control: 100 μM Raptinal-treated cells (FIG. 6).

[1] = system: whole cell CS levels in MCF-7; test: Whole cell cholesterol sulfate quantification, MCF-7; format: cell-based, human; settings: for whole cell CS levels vs DMSO: MCF-7, 6.25 μM compound, 72 hours
Experimental: (§1) General Whole Cell Cholesterol Sulfate Quantification. 60×15 mm tissue culture dishes were seeded with MCF-7 at 2×10^6 cells/dish or T47D at 1×10^6 cells per dish, 5 mL total media volume, and allowed to adhere overnight. Compounds of interest were dissolved in DMSO. Cells were treated with 25 μL 1.25 mM compound of interest stock (6.25 μM final compound concentration, 0.5% final DMSO concentration) or DMSO for 72 hours. To harvest, media was aspirated, and cells were washed once with PBS before detaching with trypsin. Trypsin was quenched with media. Cells were centrifuged at 300 xg for 3 minutes and supernatant was discarded. Cells were resuspended in media and counted using a Countess 3 automated cell counter (Thermo Fisher Scientific). 1.5×10^6 cells were collected, washed twice with 1 mL PBS, then pelleted and stored at −80° C. until lysis. Cell pellets were resuspended in 200 μL cold 70:30 methanol:water and placed on ice. Cell suspension was sonicated on ice (30%, 10 s on, 20 s off, 1 min total) and continued to be incubated on ice for 30 minutes. Lysate was clarified by centrifugation at 14,100 xg at 4° C. for 30 minutes. 100 μL of supernatant was transferred to an empty Eppendorf tube and submitted for LC-MS/MS quantification (UIUC Metabolomics Center), along with 5 mM cholesterol sulfate sodium salt standard.
as §1, with “Time Course Whole Cell” for “General Whole Cell”, “2×10^6 cells/dish per dish,” for “2×10^6 cells/dish or T47D at 1×10^6 cells per dish,”, “DMSO for 0 (harvested immediately), 4, 8, 24, 48, or 72 hours.” for “DMSO for 72 hours.”
Whole Cell Cholesterol Sulfate Quantification with Compound Removal. 60×15 mm tissue culture dishes were seeded with MCF-7 at 2×10^6 cells/dish, 5 mL total media volume, and allowed to adhere overnight. Compounds of interest were dissolved in DMSO. Cells were treated with 25 μL 1.25 mM compound of interest stock (6.25 μM final compound concentration, 0.5% final DMSO concentration) for 0 hours (harvested immediately) or 24 hours. Media was aspirated and replaced with 5 mL fresh media, then cells were either harvested (24 hour time point) or further incubated. To harvest, media was aspirated, and cells were washed once with PBS before detaching with trypsin. Trypsin was quenched with media. Cells were centrifuged at 300 xg for 3 minutes and supernatant was discarded. Cells were resuspended in media and counted using a Countess 3 automated cell counter (Thermo Fisher Scientific). 1.5×10^6 cells were collected, washed twice with 1 mL PBS, then pelleted and stored at −80° C. until lysis. Cell pellets were resuspended in 200 μL cold 70:30 methanol:water and placed on ice. Cell suspension was sonicated on ice (30%, 10 s on, 20 s off, 1 min total) and continued to be incubated on ice for 30 minutes. Lysate was clarified by centrifugation at 14,100 xg at 4° C. for 30 minutes. […]

SULT2B1b, sequence (O00204 whole entry): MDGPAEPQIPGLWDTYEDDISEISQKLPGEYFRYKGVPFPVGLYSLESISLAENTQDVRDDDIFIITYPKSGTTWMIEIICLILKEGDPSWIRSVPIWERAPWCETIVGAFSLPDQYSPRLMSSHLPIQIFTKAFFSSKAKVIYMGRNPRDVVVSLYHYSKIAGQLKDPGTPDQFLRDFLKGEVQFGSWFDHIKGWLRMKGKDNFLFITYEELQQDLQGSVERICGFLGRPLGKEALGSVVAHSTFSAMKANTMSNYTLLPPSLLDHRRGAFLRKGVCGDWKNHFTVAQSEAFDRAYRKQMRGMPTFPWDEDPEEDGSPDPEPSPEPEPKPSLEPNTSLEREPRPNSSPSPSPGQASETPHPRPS

Compound	inhibition at 100 µM (SULT2B1b)	suitable sub-lethal treatment concentration (MCF-7 cells)	whole cell CS levels vs DMSO [1]	whole cell CS levels vs DMSO ([1]; listed as 2-273)	CS level rebound after compound removal ([1]; MCF-7, 6.25 μM for 24 hours, then compound-free media up to 48 hours)	time of constant treatment to significantly decreased whole cell CS levels ([1]; MCF-7, 6.25 μM, time course)	treatment concentration showing a decrease in CS levels (whole cell dose response) ([1]; MCF-7, 72 hour treatment)
C[C@]12CCC(=O)N(Cc3ccc(Cl)cc3)C1=CC[C@@H]1[C@@H]2C(=O)C[C@]2(C)C(=O)CC[C@@H]12 [Compound 1, (4aR,4bS,6aS,9aS,9bS)-1-(4-chlorobenzyl)-4a,6a-dimethyl-3,4,4a,6,6a,8,9,9a,9b,10-decahydro-1H-indeno[5,4-f]quinoline-2,5,7(4bH)-trione]	67.8 ± 0.5%	6.25 µM	significantly decrease	–	–	–	–
C[C@]12CC[C@H](O)CC1=CC[C@@H]1[C@@H]2CC[C@]2(C)C(n3cnc4ccccc43)=CC[C@@H]12 [Compound 2, Galeterone, reference compound]	57 ± 0.7%	–	did decrease CS levels	–	–	–	–
C[C@]12CCC(=O)N(Cc3ccc(Br)cc3)C1=CC[C@@H]1[C@@H]2C(=O)C[C@]2(C)C(=O)CC[C@@H]12 [Compound 3, (4aR,4bS,6aS,9aS,9bS)-1-(4-bromobenzyl)-4a,6a-dimethyl-3,4,4a,6,6a,8,9,9a,9b,10-decahydro-1H-indeno[5,4-f]quinoline-2,5,7(4bH)-trione]	72.8 ± 0.1%	6.25 µM	significant decrease	significantly decrease; also recorded: significant (p=0.0003) reduction	did not rebound	≤ 24 h	≤ 0.097 µM
